# Results as given in ChEMBL document CHEMBL4616593, “Formaldehyde-activated WEHI-150 induces DNA interstrand crosslinks with unique structural features” (Bioorg Med Chem, 2020).
# Active and inactive are the calls of the source. The rule behind the calls is not given here.
# Assays:
# Assay type in all cases: nucleic-acid assay
# DNA [1] = experiment: Stabilization of [32P]-labelled dsDNA (unknown origin) assessed as drug-DNA adduct formation at 1 uM to 24 uM incubated for 12 hrs in presence of formaldehyde by phosphorimaging analysis
# DNA [2] = experiment: Binding affinity to dsBE45 oligonucleotide (unknown origin) assessed as drug-DNA adduct formation at 5 to 50 uM incubated for 4 hrs in presence of formaldehyde using [gamma-32P]ATP by phosphorimaging analysis
# DNA [3] = experiment: Stabilization of [32P]-labelled dsDNA (unknown origin) assessed as drug-DNA adduct formation at 5 uM in presence of formaldehyde incubated for 12 hrs by phosphorimaging analysis relative to control
# DNA [4] = experiment: Stabilization of [32P]-labelled dsDNA (unknown origin) assessed as drug-DNA adduct formation by measuring residual dsDNA level at 6 uM measured after 10 days in presence of formaldehyde by phosphorimaging analysis relative to control
# DNA [5] = experiment: Stabilization of dsBE15 oligonucleotide (unknown origin) assessed as drug-DNA adduct formation at 5 to 50 uM incubated for 4 hrs in presence of formaldehyde using [gamma-32P]ATP by phosphorimaging analysis
# DNA [6] = experiment: Stabilization of dsBE67 oligonucleotide (unknown origin) assessed as drug-DNA adduct formation at 5 to 50 uM incubated for 4 hrs in presence of formaldehyde using [gamma-32P]ATP by phosphorimaging analysis relative to control
# DNA [7] = experiment: Stabilization of dsBE12 oligonucleotide (unknown origin) assessed as drug-DNA adduct formation at 5 to 50 uM incubated for 4 hrs in presence of formaldehyde using [gamma-32P]ATP by phosphorimaging analysis relative to control
# DNA [8] = experiment: Stabilization of [32P]-labelled dsDNA (unknown origin) assessed as drug-DNA adduct formation by measuring adduct half life incubated for 12 hrs in presence of formaldehyde by phosphorimaging analysis
# DNA [9] = experiment: Stabilization of dsBE17 oligonucleotide (unknown origin) assessed as drug-DNA adduct formation at 5 to 50 uM incubated for 4 hrs in presence of formaldehyde using [gamma-32P]ATP by phosphorimaging analysis
# DNA [10] = experiment: Induction of transcriptional blockage of 512 bp DNA fragment (unknown origin) assessed as loss of full length transcript comprising 379 nucleotide at 5 uM incubated for 4 hrs in presence of formaldehyde using [alpha-32P]UTP by phosphorimaging analysis
# DNA [11] = experiment: Stabilization of [32P]-labelled dsDNA (unknown origin) assessed as drug-DNA adduct formation by measuring increase in retardation of dsDNA migration on gel at >3 uM incubated for 12 hrs in presence of formaldehyde by phosphorimaging analysis
# DNA [12] = experiment: Stabilization of [32P]-labelled dsDNA (unknown origin) assessed as drug-DNA adduct formation by measuring residual dsDNA level at 2.5 uM measured after 16 hrs in presence of formaldehyde by phosphorimaging analysis relative to control
# DNA [13] = experiment: Stabilization of dsBE15 oligonucleotide (unknown origin) assessed as drug-DNA adduct formation at 50 uM incubated for 4 hrs in presence of formaldehyde using [gamma-32P]ATP by phosphorimaging analysis relative to control
# DNA [14] = experiment: Induction of transcriptional blockage of 512 bp DNA fragment (unknown origin) assessed as loss of full length transcript comprising 379 nucleotide at 10 uM incubated for 4 hrs in presence of formaldehyde using [alpha-32P]UTP by phosphorimaging analysis relative to control
# DNA [15] = experiment: Stabilization of [32P]-labelled dsDNA (unknown origin) assessed as drug-DNA adduct formation incubated for 12 hrs in presence of formaldehyde by phosphorimaging analysis
# DNA [16] = experiment: Induction of transcriptional blockage of 512 bp DNA fragment (unknown origin) at 2.5 uM incubated for 4 hrs in presence of formaldehyde using [alpha-32P]UTP by phosphorimaging analysis
# DNA [17] = experiment: Stabilization of [32P]-labelled dsDNA (unknown origin) assessed as drug-DNA adduct formation by measuring residual dsDNA level at 6 uM measured after 16 hrs in presence of formaldehyde by phosphorimaging analysis relative to control
# DNA [18] = experiment: Induction of transcriptional blockage of 512 bp DNA fragment (unknown origin) at 2.5 to 10 uM incubated for 4 hrs in presence of formaldehyde using [alpha-32P]UTP by phosphorimaging analysis
# DNA [19] = experiment: Stabilization of [32P]-labelled dsDNA (unknown origin) assessed as drug-DNA adduct formation by measuring adduct half life at 10 uM in presence of formaldehyde by phosphorimaging analysis
Structure (SMILES),Activity (DNA [1]),Activity (DNA [2]),Activity (DNA [3]),Activity (DNA [4]),Activity (DNA [5]),Activity (DNA [6]),Activity (DNA [7]),T1/2 (DNA [8]),Activity (DNA [9]),Activity (DNA [10]),Activity (DNA [11]),Activity (DNA [12]),Activity (DNA [13]),Activity (DNA [14]),Activity (DNA [15]),Activity (DNA [16]),Activity (DNA [17]),Activity (DNA [18]),T1/2 (DNA [19])
NCCCCCNc1ccc(NCCCCCN)c2c1C(=O)c1c(O)ccc(O)c1C2=O,Active,inactive,40%,17%,inactive,30%,20%,53 h,Active,,,,,,,,,,
NCCCCCNc1ccc(F)c2c1C(=O)c1ccncc1C2=O,inactive,,< 1%,,,,,,,,,,,,,,,,
NCCNc1ccc(NCCN)c2c1C(=O)c1c(O)ccc(O)c1C2=O,Active,inactive,30%,,inactive,< 55%,30%,2.3 h,Active,,,,,,,,,,
O=C1c2c(O)ccc(O)c2C(=O)c2c(NCCNCCO)ccc(NCCNCCO)c21,,,5%,,,,Active,0.42 h,,,,,,,,,,,
NCCNCCNc1ccc(NCCNCCN)c2c1C(=O)c1c(O)ccc(O)c1C2=O,,Active,90 to 100%,,,Active,< 80%,12.5 h,Active,Active,Active,20%,> 75%,100%,Dose-dependent effect,Active,,,
NCCNCCNc1ccc(F)c2c1C(=O)c1c(O)ccc(O)c1C2=O,,,25%,,Active,Active,Active,10 h,Active,,,,,,Dose-dependent effect,,20%,Active,
NCCCCCNc1ccc(F)c2c1C(=O)c1c(O)ccc(O)c1C2=O,Active,inactive,50%,,inactive,10%,inactive,24 h,Active,,,,,,,,,,27 h
NCCCCCNc1ccc(NCCCCCN)c2c1C(=O)c1ccncc1C2=O,inactive,,< 2%,,,,,,,,,,,,,,,,
